Key:
[1] = tested on: bone marrow derived macrophages; experiment: Cytokine secretion (ELISA) by bone marrow derived macrophages, basal and LPS-induced; assay type: cell-based, mouse; settings: ELISA of supernatant over two days, GFS vs GF media
Protocol: (§1) Mouse bones were isolated from male wild-type and CARKL overexpressing mice and bone marrow wash flushed, washed and cleared from red blood cells by lysis, and subsequently differentiated in DMEM containing 25 mM glucose and 20 ng/ml M-CSF. After 4 days, cells for osteoclast differentiation were harvested and seeded in corning osteo assay plates with differentiation media (see below), and for primary bone marrow derived macrophages (BMDM) the medium was renewed and further supplemented with M-SCF for two days. Differentiated BMDM were then seeded in respective DMEM-media containing 10% FBS and indicated carbohydrate mixes at 3 g/L (glucose and fructose (GF), or glucose, fructose and sedoheptulose (GFS)) at least two days before experiments were performed.

osteoclasts = experiment: In vitro bone resorption assay (osteoclast pit formation); assay type: cell-based, mouse
Protocol: as §1, with “performed. Osteoclast precursor cells (bone marrow cells treated with 20 ng/ml M-CSF for 4 days) were plated in 24-well Corning Osteo Assay plate in the presence of 10 ng/ml M-CSF and 100 ng/ml RANKL in alpha-MEM medium containing 10% FBS and 3 g/L either glucose and fructose (GF), or glucose, fructose, and sedoheptulose (GFS). The Medium was renewed every third day. […] Each well was entirely photographed by TissueFax with an ×20 objective and all visible resorption pits were counted and analysed blinded.” for “performed.”

[2] = tested on: primary bone marrow derived macrophages; experiment: Basal cytokine mRNA expression in primary bone marrow derived macrophages in GF or GFS media; assay type: cell-based, mouse; settings: pre-cultured two days in GFS vs GF media
Protocol: as §1
(§2) Briefly, total RNA was extracted and reverse-transcribed using commercial kits (QIAGEN, Applied Biosystems). Quantitative real-time PCRs were performed on an AbiPRISM 7900HT real-time cycler using iTaq SYBR Green Supermix with ROX (BioRad) to measure CARKL, adiponectin, UCP-1, TNFa, IL-6, MCP-1, and beta-actin expression as previously described (Haschemi et al., Cell Metab. 15 (2012), 813-826). Expression of target gene was normalized to beta-actin expression. Relative expression of target gene was calculated by the delta-delta CT method.

[3] = target: T1, Glucose-6-phosphate dehydrogenase (G6PD) (Mus musculus, UniProt Q00612); experiment: Glucose-6-phosphate dehydrogenase activity assay (enzyme histochemistry) in hepatocytes; assay type: cell-based; settings: WT cells incubated in cell culture media with sedoheptulose; data not shown
T1 construct: Hepatocytes were isolated from male wild-type and CARKL overexpressing mice; endogenous in cells; host or cells: primary mouse hepatocytes (WT and CARKL-transgenic)
T1 sequence (Q00612 whole entry): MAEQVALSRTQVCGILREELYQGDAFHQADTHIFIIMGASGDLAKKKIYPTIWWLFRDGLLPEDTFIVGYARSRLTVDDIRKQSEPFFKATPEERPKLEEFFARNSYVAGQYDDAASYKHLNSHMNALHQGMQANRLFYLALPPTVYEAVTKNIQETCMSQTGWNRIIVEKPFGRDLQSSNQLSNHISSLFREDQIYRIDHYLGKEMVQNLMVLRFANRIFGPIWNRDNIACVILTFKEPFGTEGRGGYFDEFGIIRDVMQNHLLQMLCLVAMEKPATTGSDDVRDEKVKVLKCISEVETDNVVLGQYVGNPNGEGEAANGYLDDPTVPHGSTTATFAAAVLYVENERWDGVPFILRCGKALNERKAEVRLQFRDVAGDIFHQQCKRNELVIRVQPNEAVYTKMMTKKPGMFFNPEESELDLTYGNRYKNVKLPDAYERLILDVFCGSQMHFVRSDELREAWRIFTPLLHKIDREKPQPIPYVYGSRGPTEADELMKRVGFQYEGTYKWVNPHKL
Protocol: (§3) Hepatocytes were isolated from male wild-type and CARKL overexpressing mice after the mice were sacrificed by hepatic in situ collagenase perfusion. After perfusion, the liver was quickly removed, minced, and filtered through a cell strainer (Fisher Scientific, Inc) into a 50 ml sterile tube. Hepatocytes in the resulting filtrate were purified from the nonparenchymal cells by centrifugation steps. The isolated hepatocytes were seeded into plates at a concentration of 0.25×10^6/ml in respective DMEM-media containing 10% FBS and indicated carbohydrate mixes at 3 g/L (glucose and fructose (GF), or glucose, fructose and sedoheptulose (GFS)) at least two days before experiments were performed.
Cells were grown on polystyrene vessel tissue culture treated glass slides, snap frozen in liquid nitrogen and kept at −80° C. The enzyme histochemical procedure was based on the tetrazolium salt method as described by Van Noorden and Frederiks. […] The medium was freshly prepared immediately before incubation. Control reactions additionally contained 40 mM glucosamine-6-phosphate. Cells were incubated at room temperature for 15 minutes under continuous mixing by orbital shaker. After incubation, cells were washed 3×5 minutes in 60° C. phosphate buffered saline, dried, and mounted in glycerol gelatin, and photographed within one day at ×10 magnification.

primary human adipocytes [4] = experiment: mRNA expression (RT-PCR) in primary human adipocytes differentiated in GF or GFS media; assay type: cell-based; settings: GFS (1 g/L each sugar) vs GF (1.5 g/L each), eight days differentiation
Protocol: Stromal vascular fraction cells (SVFs) from subcutaneous white adipose tissue of a patient undergoing abdominal surgery were isolated as described before (Lindroos et al, Cell Metab. (2013), Jul. 2; 18(1):62-74.). Briefly, adipose tissue was digested with Collagenase II (Worthington) and filtered. SVFs were separated from mature adipocytes by centrifugation, followed by the lysis of erythrocytes in the SVF-fraction (Buffer EL, Qiagen). The purified SVFs were cultured in DMEM/F12, 10% FBS (Gibco, Life Technologies). […] Two days after confluence (day 0), differentiation was induced by adding 1 μM dexamethasone, 1.74 μM insulin, 5 μM troglitazone, […], 17 μM pantothenic acid and 33 μM biotin. After two days, IBMX and dexamethasone were omitted, while insulin and troglitazone were removed on day 4. 50% of the medium was replaced on day 6. Two days later, the cells were harvested for RNA isolation (RNeasy mini kit, Qiagen). Briefly, total RNA was extracted and reverse-transcribed using commercial kits (QIAGEN, Applied Biosystems). Quantitative real-time PCRs were performed on an […] real-time cycler using iTaq SYBR Green Supermix with ROX (BioRad) to measure CARKL, adiponectin, UCP-1, TNFa, IL-6, MCP-1, and beta-actin expression as previously described ([…] et al., Cell Metab. 15 (2012), 813-826). […] Relative expression of target gene was calculated by the delta-delta CT method.

WT hepatocytes = experiment: Glucose-induced ECAR in primary hepatocytes; assay type: cell-based, mouse; settings: WT hepatocytes in GFS vs GF media, 1 hr carbohydrate starvation, then glucose 1 g/L
Protocol: as §3
(§4) The XF-Analyzer (Seahorse Bio.) was used to measure changes in cellular metabolism induced by different carbohydrates. Extracellular acidification rates (ECAR, mpH/min) and oxygen consumption rates (OCR, pmoles/min) were recorded in primary human adipocytes and primary murine hepatocytes according to the manufacture instructions. Briefly, cells were seeded in seahorse cell plates at a density of 10^4 cells per well for adipocytes and 0.5×10^5 cells per well for hepatocytes. […] Changes induced by the different carbohydrate sources were expressed as relative change in % to illustrate the effect of each carbon source.

mature murine adipocytes = experiment: Cytokine mRNA expression in mature murine adipocytes (ceiling culture) in GF or GFS media; assay type: cell-based, mouse; settings: three days in sedoheptulose containing media vs glucose and fructose alone
Protocol: Anterior and posterior subcutaneous adipose tissue and epididymal white adipose tissue was isolated from transgenic CARKL-mice and wild-type littermate controls. Adipose tissue was digested as described above for the human sample. After centrifugation, the layer of floating mature adipocytes was removed and re-centrifuged at 100 rcf for 10 minutes. 150 μL of packed adipocytes were cultured under a floating coverslip in six-well plates, in DMEM/F12, 15% calf serum (PAA). 24 hours after isolation, the wells were washed twice with PBS and the medium was exchanged to DMEM/F12 with a total carbohydrate load of 3 g/L, containing 1.5 g/L glucose and fructose, or 1 g/L each of glucose, fructose and sedoheptulose, respectively. Three days later, the cells were harvested for RNA isolation using TRIreagent (Sigma).
as §2

primary human adipocytes [5] = experiment: Oxygen consumption rate and extracellular acidification rate (XF-Analyzer) in primary human adipocytes; assay type: cell-based; settings: human adipocytes differentiated and cultured in sedoheptulose containing media vs controls
Protocol: Stromal vascular fraction cells (SVFs) from subcutaneous white adipose tissue of a patient undergoing abdominal surgery were isolated as described before (Lindroos et al, Cell Metab. (2013), Jul. 2; 18(1):62-74.). Briefly, adipose tissue was digested with Collagenase II (Worthington) and filtered. SVFs were separated from mature adipocytes by centrifugation, followed by the lysis of erythrocytes in the SVF-fraction (Buffer EL, Qiagen). The purified SVFs were cultured in DMEM/F12, 10% FBS (Gibco, Life Technologies). As soon as the cells reached confluence, they were washed with DMEM/F12 w/o glucose (Biowest) and the medium was replaced by DMEM/F12 with a total carbohydrate load of 3 g/L, containing 1.5 g/L glucose and fructose or 1 g/L each of glucose, fructose, and sedoheptulose, respectively. […]
as §4, with “instructions.” for “instructions. Briefly, cells were seeded in seahorse cell plates at a density of 10^4 cells per well for adipocytes and 0.5×10^5 cells per well for hepatocytes.”

[6] = tested on: primary murine hepatocytes; experiment: IL-6 mRNA expression in primary murine hepatocytes in GF or GFS media; assay type: cell-based, mouse; settings: hepatocytes pre-cultured two days with sedoheptulose (GFS) vs GF
Protocol: as §3, §2

[7] = tested on: sedoheptulose kinase (CARKL); experiment: Sedoheptulose kinase assay (ADP Quest, ADP formation); assay type: biochemical; settings: constant amount of recombinant CARKL, constant ATP 150 μM, increased doses of sedoheptulose
From the text: The ADP Quest Assay (DiscoveRx) was used to indirectly measure […] formation by ADP accumulation over time according to the manufacture instructions. Recombinant sedoheptulose kinase was previously produced in E. coli and purified by affinity purification ([…] et al., Cell Metab. 15 (2012), 813-826).

[8] = Diet-derived sedoheptulose uptake in humans (serum GC-MS before/after carrot meal); assay type: in vivo, human; settings: two hours after meal of mainly steamed carrots (~700 g) vs overnight fasted, n=4
From the text: Fresh carrots with an Austrian “organic-certificate” were sliced into small pieces and snap-frozen in liquid nitrogen. The same procedure was applied to leaves freshly harvested from indoor-grown Sedum Spectabile plants. Three samples of each tissue were pooled and homogenized to powder by glass-beads. The carbohydrate rich fractions of the samples were isolated by 20% H2O and 80% MeOH extraction solution spiked with 13C standards and processed for standard gas-chromatography coupled to mass spectrometry (GC-MS). Glucose and sedoheptulose were identified by their individual masses and their relative amount was derived from the peak area of each individual analyte normalized to 13C content. Glucose and sedoheptulose were also measured in equal volumes of serum from overnight fasted or carrot fed individuals. The carrots were steamed and some olive-oil, salt and pepper were used for flavour. Two hours before and two hours after the carrot containing meal human serum was prepared in VACUETTE® Z Serum Sep tubes from blood. Serum samples were processed as previously described and also analyzed by GC-MS as detailed above and in Ruiz-Matute A I et al., Chromatogr B Analyt Technol Biomed Life Sci. (2011) May 15 879(17-18).

G6PD activity distribution (re-localization of G6PD and reduced activity in the inner space of the cells, as in CARKL overexpressing cells) [3]: same phenotype was achieved
sedoheptulose kinase CARKL mRNA expression (primary human adipocytes [4]): increase
sedoheptulose turnover rate (ADP formation) [7]: enhanced
increase in sedoheptulose serum levels [8]: approximately two-fold
SMILES: O=C(CO)[C@@H](O)[C@H](O)[C@H](O)[C@H](O)CO [sedoheptulose, Sedoheptulose]
basal IL-6 secretion [1]: blocked
basal TNFa secretion [1]: blocked
pit formation by osteoclasts (osteoclasts; 7 days in GFS vs GF media, Corning Osteo Assay plates): reduced
larger resorption-pits (osteoclasts; WT osteoclasts cultured in GF or GFS media): found only in the absence of sedoheptulose
basal IL-6 mRNA expression [2]: blocked
basal TNFa mRNA expression [2]: blocked
glucose-induced ECAR (WT hepatocytes): reduced
IL-6 mRNA (mature murine adipocytes): less
TNFa mRNA (mature murine adipocytes): less
cellular oxygen consumption rate (OCR) (primary human adipocytes [5]): increased
extracellular acidification rate (ECAR) (primary human adipocytes [5]): comparable
IL-6 expression [6]: less
